Here are results for 6 molecules from patent publication US20220340597A1, “HEXAHYDRO-1H-PYRAZINO[1,2-A]PYRAZINE COMPOUNDS FOR THE TREATMENT OF AUTOIMMUNE DISEASE” (Hoffmann-La Roche Inc., priority 2019, published 2022).

In one data set the target is T1, hERG channel (Homo sapiens, UniProt Q12809).
T1 construct: expressed in transfected cells; host or cells: CHO (Chinese hamster ovary), CHOhERG
The data set is described as follows: hERG channel inhibition assay (patch-clamp, CHOhERG cells). It is filed as cell-based. To be noted: for pIC50 / IC20: CHOhERG cells, whole-cell patch-clamp; for IC20: human, CHO cells stably expressing hERG (CHOhERG); for hERG IC20/TLR7 IC50 / hERG IC20/TLR8 IC50 / hERG IC20/TLR9 IC50: safety ratio. The method, then:
hERG Channel Inhibition Assay:
The hERG K^+ channels were cloned in humans and stably expressed in a CHO (Chinese hamster ovary) cell line. CHOhERG cells were used for patch-clamp (voltage-clamp, whole-cell) experiments. Cells were stimulated by a voltage pattern to activate hERG channels and conduct IKhERG currents (rapid delayed outward rectifier potassium current of the hERG channel). After the cells were stabilized for a few minutes, the amplitude and kinetics of IKhERG were recorded at a stimulation frequency of 0.1 Hz (6 bpm). Thereafter, the test compound was added to the preparation at increasing concentrations. For each concentration, an attempt was made to reach a steady-state effect, usually, this was achieved within 3-10 min at which time the next highest concentration was applied. The amplitude and kinetics of IKhERG are recorded in each concentration of the drug which were compared to the control values (taken as 100%). (references: Redfern W S, Carlsson L, Davis A S, Lynch W G, MacKenzie I, Palethorpe S, Siegl P K, Strang I, Sullivan A T, Wallis R, Camm A J, Hammond T G. 2003; Relationships between preclinical cardiac electrophysiology, clinical QT interval prolongation and torsade de pointes for a broad range of drugs: evidence for a provisional safety margin in drug development. Cardiovasc. Res. 58:32-45, Sanguinetti M C, Tristani-Firouzi M. 2006; hERG potassium channels and cardiac arrhythmia. Nature 440:463-469, Webster R, Leishman D, Walker D. 2002; Towards a drug concentration effect relationship for QT prolongation and torsades de pointes. Curr. Opin. Drug Discov. Devel. 5:116-26).
The calculation of hERG IC20/TLR7/8/9 IC50 below serves as early selectivity index to assess hERG liability.
(Block of hERG is tested as a sign of cardiac risk.)

The target of the next data set is T2, human TLR9 (Homo sapiens, UniProt Q9NR96).
T2 construct: host or cells: HEK293 (HEK-Blue hTLR9)
T2 sequence (Q9NR96 26-1032): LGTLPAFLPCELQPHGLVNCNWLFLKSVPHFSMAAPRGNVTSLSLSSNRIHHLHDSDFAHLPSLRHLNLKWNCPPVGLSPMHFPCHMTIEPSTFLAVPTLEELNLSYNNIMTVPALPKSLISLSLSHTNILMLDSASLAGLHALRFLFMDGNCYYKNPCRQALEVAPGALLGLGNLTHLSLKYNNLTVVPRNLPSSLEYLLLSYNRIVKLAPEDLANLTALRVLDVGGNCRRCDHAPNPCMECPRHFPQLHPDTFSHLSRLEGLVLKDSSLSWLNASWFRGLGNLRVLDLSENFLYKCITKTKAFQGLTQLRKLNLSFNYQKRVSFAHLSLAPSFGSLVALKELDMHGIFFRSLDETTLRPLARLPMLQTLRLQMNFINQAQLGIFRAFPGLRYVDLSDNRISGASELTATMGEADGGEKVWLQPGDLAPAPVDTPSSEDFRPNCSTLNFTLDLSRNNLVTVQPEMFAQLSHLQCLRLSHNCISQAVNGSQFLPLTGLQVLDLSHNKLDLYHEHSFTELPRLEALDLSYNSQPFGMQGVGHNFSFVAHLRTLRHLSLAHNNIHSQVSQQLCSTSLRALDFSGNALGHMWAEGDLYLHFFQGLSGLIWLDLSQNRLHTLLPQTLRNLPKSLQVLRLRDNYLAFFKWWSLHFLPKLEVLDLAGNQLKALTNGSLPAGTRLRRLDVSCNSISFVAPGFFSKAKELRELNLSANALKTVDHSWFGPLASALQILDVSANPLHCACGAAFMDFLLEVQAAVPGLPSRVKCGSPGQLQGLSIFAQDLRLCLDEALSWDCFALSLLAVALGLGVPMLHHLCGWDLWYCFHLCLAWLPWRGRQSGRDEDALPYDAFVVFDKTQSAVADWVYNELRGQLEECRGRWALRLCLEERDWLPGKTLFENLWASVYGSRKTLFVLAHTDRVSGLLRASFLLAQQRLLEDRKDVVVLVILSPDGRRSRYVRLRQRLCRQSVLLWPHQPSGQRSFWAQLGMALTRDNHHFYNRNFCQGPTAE
The data set is described as follows: HEK293-Blue-hTLR-9 cells assay. Format: cell-based. To be noted: HEK293-Blue-hTLR9 cells, ODN2006 stimulation, 20 hrs, SEAP reporter; read-out: HEK/hTLR9 IC50.

Molecules are shown by their SMILES. pIC50: −log10 of the molar value. Bounds are passed on as bounds.

T1 sequence (Q12809 whole entry): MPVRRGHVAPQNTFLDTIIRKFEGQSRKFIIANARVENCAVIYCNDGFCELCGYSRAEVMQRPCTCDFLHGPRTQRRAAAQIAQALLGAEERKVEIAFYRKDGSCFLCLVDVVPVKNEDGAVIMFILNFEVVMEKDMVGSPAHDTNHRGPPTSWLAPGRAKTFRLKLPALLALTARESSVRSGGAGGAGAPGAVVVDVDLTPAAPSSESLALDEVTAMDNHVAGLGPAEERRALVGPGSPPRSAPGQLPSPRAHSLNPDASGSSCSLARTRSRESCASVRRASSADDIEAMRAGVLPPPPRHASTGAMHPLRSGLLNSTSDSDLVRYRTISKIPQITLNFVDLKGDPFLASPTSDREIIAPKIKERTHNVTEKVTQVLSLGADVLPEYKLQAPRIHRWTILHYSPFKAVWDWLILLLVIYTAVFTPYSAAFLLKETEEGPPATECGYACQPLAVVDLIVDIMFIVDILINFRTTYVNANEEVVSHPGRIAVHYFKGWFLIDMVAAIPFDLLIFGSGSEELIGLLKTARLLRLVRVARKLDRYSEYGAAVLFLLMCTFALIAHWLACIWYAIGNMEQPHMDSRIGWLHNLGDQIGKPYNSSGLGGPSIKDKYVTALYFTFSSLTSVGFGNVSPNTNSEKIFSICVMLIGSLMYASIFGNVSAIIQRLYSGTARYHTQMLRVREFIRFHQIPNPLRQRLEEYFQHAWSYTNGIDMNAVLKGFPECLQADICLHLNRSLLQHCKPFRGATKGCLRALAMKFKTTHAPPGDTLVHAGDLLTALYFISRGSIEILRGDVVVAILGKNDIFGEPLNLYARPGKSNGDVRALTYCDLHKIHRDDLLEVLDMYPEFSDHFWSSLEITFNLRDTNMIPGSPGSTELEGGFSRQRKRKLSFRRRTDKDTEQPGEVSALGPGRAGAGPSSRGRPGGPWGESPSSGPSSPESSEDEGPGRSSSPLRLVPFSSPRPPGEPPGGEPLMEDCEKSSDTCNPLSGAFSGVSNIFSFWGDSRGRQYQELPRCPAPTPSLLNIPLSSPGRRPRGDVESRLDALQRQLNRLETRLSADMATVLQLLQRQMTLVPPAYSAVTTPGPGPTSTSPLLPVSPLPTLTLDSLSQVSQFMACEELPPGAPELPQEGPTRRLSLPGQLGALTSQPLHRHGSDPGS

In the case of `C[C@@H]1CN(c2ccc(C#N)c3ncccc23)C[C@@H]2CN(Cc3ccc(N4CCNCC4)nc3)CCN21` [Example 8, 5-[(4R,9aS)-4-methyl-8-[(6-piperazin-1-yl-3-pyridyl)methyl]-3,4,6,7,9,9a-hexahydro-1H-pyrazino[1,2-a]pyrazin-2-yl]quinoline-8-carbonitrile], at hERG channel, the pIC50 is less than 4.70, the IC20 (commonly the concentration needed for an effect of 20%) is 8.63 µM, the “hERG IC20/TLR7 IC50” value is recorded as 392 and the “hERG IC20/TLR8 IC50” value stood at 166. The “hERG IC20/TLR9 IC50” value at hERG channel was 210. The pIC50 at human TLR9 was 7.39.
`[2H]c1ccc2c(N3C[C@@H]4CN(c5ccc(N6CC7CCC(C6)N7)nc5)CCN4[C@@H](C)C3)ccc(C#N)c2n1` [Example 112, 5-[(4S,9aR)-8-[6-(3,8-diazabicyclo[3.2.1]octan-3-yl)-3-pyridyl]-4-methyl-3,4,6,7,9,9a-hexahydro-1H-pyrazino[1,2-a]pyrazin-2-yl]-2-deuterio-quinoline-8-carbonitrile]: at hERG channel, the pIC50 was less than 4.70, the IC20 is more than 10 µM, the “hERG IC20/TLR7 IC50” value was more than 2500 and the “hERG IC20/TLR8 IC50” value was more than 1000. Besides, the “hERG IC20/TLR9 IC50” value at hERG channel was more than 122. Besides, the pIC50 at human TLR9 was 7.09.
On to `[2H]c1ccc2c(N3C[C@@H]4CN(c5ccc(N6C[C@@H](N)[C@H](OC)C6)nc5)CCN4[C@@H](C)C3)ccc(C#N)c2n1` [Example 115, 5-[(4S,9aR)-8-[6-[(3R,4R)-3-amino-4-methoxy-pyrrolidin-1-yl]-3-pyridyl]-4-methyl-3,4,6,7,9,9a-hexahydro-1H-pyrazino[1,2-a]pyrazin-2-yl]-2-deuterio-quinoline-8-carbonitrile], for which, at hERG channel, the pIC50 is less than 4.70, the IC20 was more than 10 µM, the “hERG IC20/TLR7 IC50” value is reported as more than 1000 and the “hERG IC20/TLR8 IC50” value was more than 588. For the same molecule, the “hERG IC20/TLR9 IC50” value on hERG channel is reported as more than 71. Further, the pIC50 at human TLR9 is 6.85.
With `C[C@@H]1CN(c2ccc(C#N)c3ncccc23)C[C@@H]2CN(c3cc(N4CCNCC4)ccn3)CCN21` [Example 34, 5-[(4R,9aR)-4-methyl-8-(4-piperazin-1-yl-2-pyridyl)-3,4,6,7,9,9a-hexahydro-1H-pyrazino[1,2-a]pyrazin-2-yl]quinoline-8-carbonitrile], on hERG channel, the pIC50 is less than 5.00, the IC20 was 4.74 µM, the “hERG IC20/TLR7 IC50” value amounted to 237 and the “hERG IC20/TLR8 IC50” value is 339. Also, the “hERG IC20/TLR9 IC50” value at hERG channel came out at 113. The pIC50 on human TLR9 is 7.38.
On to `Cc1cc(N2CC3(CN(C)C3)C2)cnc1N1CCN2[C@@H](C1)CN(c1cc(=O)n(C)c3ncccc13)C[C@@H]2C` [Example 113, 4-[(4S,9aR)-4-methyl-8-[3-methyl-5-(6-methyl-2,6-diazaspiro[3.3]heptan-2-yl)-2-pyridyl]-3,4,6,7,9,9a-hexahydro-1H-pyrazino[1,2-a]pyrazin-2-yl]-1-methyl-1,8-naphthyridin-2-one], for which, at hERG channel, the pIC50 is less than 4.70, the IC20 is more than 10 µM, the “hERG IC20/TLR7 IC50” value was more than 1666 and the “hERG IC20/TLR8 IC50” value was more than 70. In addition, on hERG channel, the “hERG IC20/TLR9 IC50” value is reported as more than 79. Besides, at human TLR9, the pIC50 is 6.90.
On to `CO[C@H]1CN(c2ccc(CCN3CCN4[C@@H](C3)CN(c3ccc(C#N)c5ncccc35)C[C@H]4C)cn2)C[C@@H]1N` [Example 25, 5-[(4R,9aS)-8-[2-[6-[(3S,4S)-3-amino-4-methoxy-pyrrolidin-1-yl]-3-pyridyl]ethyl]-4-methyl-3,4,6,7,9,9a-hexahydro-1H-pyrazino[1,2-a]pyrazin-2-yl]quinoline-8-carbonitrile], for which, on hERG channel, the pIC50 was less than 4.70, the IC20 was more than 10 µM, the “hERG IC20/TLR7 IC50” value is listed as more than 769 and the “hERG IC20/TLR8 IC50” value is more than 400. Also, at hERG channel, the “hERG IC20/TLR9 IC50” value is more than 156. Besides, the pIC50 on human TLR9 is 7.19.
